The values below come from patent US8530493B2, “Indolopyridines as Eg5 kinesin modulators” (4SC AG, priority 2006, dated 2013).

The assay relates to RKO p21 uninduced (proliferating) colon adenocarcinoma cells. The assay can be described thus: Alamar Blue cell viability assay, RKO p21 uninduced (proliferating). Type of assay: cell-based. The following applies: Homo sapiens, Table B3, anti-proliferative/cytotoxic activity, 72 hours, read-out: −log EC50 RKO p21 uninduced (proliferating) (converted). Summed up:
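Viability read by Alamar Blue fluorescence (ex 544, em 590 nm), normalised to untreated wells, after 72 h, 37° C, 5% CO2 compound exposure in triplicate. Cells were uninduced (no Ponasterone A), proliferating RKO colon carcinoma p27 or p21 subclones in DMEM with 10% FCS; values are −log EC50 (mol/l).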

With `C=CCN(C)CCN1C(=O)N2[C@H](c3cccc(O)c3)c3[nH]c4ccc(OCC)cc4c3C[C@@]2(C)C1=O` (racemic) [Example 300, (3aSR,10RS)-2-[2-(Allyl-methyl-amino)-ethyl]-6-ethoxy-10-(3-hydroxy-phenyl)-3a-methyl-3a,4,9,10-tetrahydro-2,9,10a-triaza-cyclopenta[b]fluorene-1,3-dione], the EC50 (in general, the concentration that produces a half-maximal response) is 39.8 to 251 nM.
For `CC(C)CNCCN1C(=O)N2[C@H](c3cccc(O)c3)c3[nH]c4ccc(Br)cc4c3C[C@@]2(C)C1=O` (racemic) [Example 391, (3aSR,10RS)-6-Bromo-10-(3-hydroxy-phenyl)-2-(2-isobutylamino-ethyl)-3a-methyl-3a,4,9,10-tetrahydro-2,9,10a-triaza-cyclopenta[b]fluorene-1,3-dione], the EC50 is no more than 39.8 nM.
For the compound `C[C@@]12Cc3c([nH]c4ccc(OC(F)F)cc34)[C@@H](c3cccc(O)c3)N1C(=O)N(CCCNC1CC1)C2=O` (racemic) [Example 202, (3aSR,10RS)-2-(3-Cyclopropylamino-propyl)-6-(1,1-difluoro-methoxy)-10-(3-hydroxy-phenyl)-3a-methyl-3a,4,9,10-tetrahydro-2,9,10a-triaza-cyclopenta[b]fluorene-1,3-dione], the EC50 is 39.8 to 251 nM.
The figure for `CCOc1ccc2[nH]c3c(c2c1)C[C@@]1(C)C(=O)N(CCN2CCCCCC2)C(=O)N1[C@@H]3c1cccc(O)c1` (racemic) [Example 166, (3aSR,10RS)-2-(2-Azepan-1-yl-ethyl)-6-ethoxy-10-(3-hydroxy-phenyl)-3a-methyl-3a,4,9,10-tetrahydro-2,9,10a-triaza-cyclopenta[b]fluorene-1,3-dione] is 39.8 to 251 nM; for `CCOc1ccc2[nH]c3c(c2c1)C[C@@]1(C)C(=O)N(CCN(CC)CCO)C(=O)N1[C@@H]3c1cccc(O)c1` (racemic) [Example 298, (3aSR,10RS)-6-Ethoxy-2-{2-[ethyl-(2-hydroxy-ethyl)-amino]-ethyl}-10-(3-hydroxy-phenyl)-3a-methyl-3a,4,9,10-tetrahydro-2,9,10a-triaza-cyclopenta[b]fluorene-1,3-dione] it is 39.8 to 251 nM; for `CC1CCN(CCN2C(=O)N3[C@H](c4cccc(O)c4)c4[nH]c5cc(F)c(Cl)cc5c4C[C@@]3(C)C2=O)CC1` (racemic) [Example 357, (3aSR,10RS)-6-Chloro-7-fluoro-10-(3-hydroxy-phenyl)-3a-methyl-2-[2-(4-methyl-piperidin-1-yl)-ethyl]-3a,4,9,10-tetrahydro-2,9,10a-triaza-cyclopenta[b]fluorene-1,3-dione] it is 39.8 to 251 nM.
`C[C@@]12Cc3c([nH]c4cc(F)c(Cl)cc34)[C@@H](c3cccc(O)c3)N1C(=O)N(CCN1CCOCC1)C2=O` (racemic) [Example 353, (3aSR,10RS)-6-Chloro-7-fluoro-10-(3-hydroxy-phenyl)-3a-methyl-2-(2-morpholin-4-yl-ethyl)-3a,4,9,10-tetrahydro-2,9,10a-triaza-cyclopenta[b]fluorene-1,3-dione]: the EC50 is 39.8 to 251 nM.
Consider `C[C@@]12Cc3c([nH]c4ccc(OC(F)F)cc34)[C@@H](c3cccc(O)c3)N1C(=O)N(CCCNCC1CC1)C2=O` (racemic) [Example 200, (3aSR,10RS)-2-[3-(Cyclopropylmethyl-amino)-propyl]-6-(1,1-difluoro-methoxy)-10-(3-hydroxy-phenyl)-3a-methyl-3a,4,9,10-tetrahydro-2,9,10a-triaza-cyclopenta[b]fluorene-1,3-dione], for which the EC50 was 39.8 to 251 nM.
For `CC(C)(C)NCCCN1C(=O)N2[C@H](c3cccc(O)c3)c3[nH]c4ccc(OC(F)F)cc4c3C[C@@]2(C)C1=O` (racemic) [Example 182, (3aSR,10RS)-2-(3-tert-Butylamino-propyl)-6-(1,1-difluoro-methoxy)-10-(3-hydroxy-phenyl)-3a-methyl-3a,4,9,10-tetrahydro-2,9,10a-triaza-cyclopenta[b]fluorene-1,3-dione], the EC50 is no more than 39.8 nM.
Take `COc1cc2c3c([nH]c2cc1F)[C@@H](c1cccc(O)c1)N1C(=O)N(CCCNC2CCC2)C(=O)[C@]1(C)C3` (racemic) [Example 333, (3aSR,10RS)-2-(3-Cyclobutylamino-propyl)-7-fluoro-10-(3-hydroxy-phenyl)-6-methoxy-3a-methyl-3a,4,9,10-tetrahydro-2,9,10a-triaza-cyclopenta[b]fluorene-1,3-dione]: the EC50 was 39.8 to 251 nM.
The figure for `CC(C)NCCN1C(=O)N2[C@H](c3cccc(O)c3)c3[nH]c4ccc(OC(F)F)cc4c3C[C@@]2(C)C1=O` (racemic) [Example 268, (3aSR,10RS)-6-(1,1-Difluoro-methoxy)-10-(3-hydroxy-phenyl)-2-(2-isopropylamino-ethyl)-3a-methyl-3a,4,9,10-tetrahydro-2,9,10a-triaza-cyclopenta[b]fluorene-1,3-dione] is no more than 39.8 nM; for `COCCNCCN1C(=O)N2[C@H](c3cccc(O)c3)c3[nH]c4ccc(Br)cc4c3C[C@@]2(C)C1=O` (racemic) [Example 377, (3aSR,10RS)-6-Bromo-10-(3-hydroxy-phenyl)-2-[2-(2-methoxy-ethylamino)-ethyl]-3a-methyl-3a,4,9,10-tetrahydro-2,9,10a-triaza-cyclopenta[b]fluorene-1,3-dione] it is no more than 39.8 nM; for `COc1cc2c3c([nH]c2cc1F)[C@@H](c1cccc(O)c1)N1C(=O)N(CCNC2CCC2)C(=O)[C@]1(C)C3` (racemic) [Example 426, (3aSR,10RS)-2-(2-Cyclobutylamino-ethyl)-7-fluoro-10-(3-hydroxy-phenyl)-6-methoxy-3a-methyl-3a,4,9,10-tetrahydro-2,9,10a-triaza-cyclopenta[b]fluorene-1,3-dione] it is no more than 39.8 nM.
Regarding `CCN(C)CCCN1C(=O)N2[C@H](c3cccc(O)c3)c3[nH]c4ccc(OC)cc4c3C[C@@]2(C)C1=O` [Example 541, (3aS,10R)-2-[3-(Ethyl-methyl-amino)-propyl]-10-(3-hydroxy-phenyl)-6-methoxy-3a-methyl-3a,4,9,10-tetrahydro-2,9,10a-triaza-cyclopenta[b]fluorene-1,3-dione], the EC50 was no more than 39.8 nM.
Take `COCCNCCCN1C(=O)N2[C@H](c3cccc(O)c3)c3[nH]c4ccc(Cl)cc4c3C[C@@]2(C)C1=O` (racemic) [Example 185, (3aSR,10RS)-6-Chloro-10-(3-hydroxy-phenyl)-2-[3-(2-methoxy-ethylamino)-propyl]-3a-methyl-3a,4,9,10-tetrahydro-2,9,10a-triaza-cyclopenta[b]fluorene-1,3-dione]: the EC50 is no more than 39.8 nM.
The figure for `COc1cc2c3c([nH]c2cc1F)[C@@H](c1cccc(O)c1)N1C(=O)N(CCCNCC2CC2)C(=O)[C@]1(C)C3` (racemic) [Example 304, (3aSR,10RS)-2-[3-(Cyclopropylmethyl-amino)-propyl]-7-fluoro-10-(3-hydroyx-phenyl)-6-methoxy-3a-methyl-3a,4,9,10-tetrahydro-2,9,10a-triaza-cyclopenta[b]fluorene-1,3-dione] is 39.8 to 251 nM; for `C[C@@]12Cc3c([nH]c4ccc(OC(F)F)cc34)[C@@H](c3cccc(O)c3)N1C(=O)N(CCN1CCCCC1)C2=O` (racemic) [Example 280, (3aSR,10RS)-6-(1,1-Difluoro-methoxy)-10-(3-hydroxy-phenyl)-3a-methyl-2-(2-piperidin-1-yl-ethyl)-3a,4,9,10-tetrahydro-2,9,10a-triaza-cyclopenta[b]fluorene-1,3-dione] it is 39.8 to 251 nM.
The figure for `CCN(CCO)CCN1C(=O)N2[C@H](c3cccc(O)c3)c3[nH]c4ccc(Br)cc4c3C[C@@]2(C)C1=O` (racemic) [Example 379, (3aSR,10RS)-6-Bromo-2-{2-[ethyl-(2-hydroxy-ethyl)-amino]-ethyl}-10-(3-hydroxy-phenyl)-3a-methyl-3a,4,9,10-tetrahydro-2,9,10a-triaza-cyclopenta[b]fluorene-1,3-dione] is no more than 39.8 nM; for `C[C@@]12Cc3c([nH]c4ccc(OC(F)F)cc34)[C@@H](c3cccc(O)c3)N1C(=O)N(CCCN1CCCCC1)C2=O` (racemic) [Example 239, (3aSR,10RS)-6-(1,1-Difluoro-methoxy)-10-(3-hydroxy-phenyl)-3a-methyl-2-(3-piperidin-1-yl-propyl)-3a,4,9,10-tetrahydro-2,9,10a-triaza-cyclopenta[b]fluorene-1,3-dione] it is no more than 39.8 nM; for `C[C@@]12Cc3c([nH]c4ccc(Br)cc34)[C@@H](c3cccc(O)c3)N1C(=O)N(CCN1CCCCC1)C2=O` (racemic) [Example 390, (3aSR,10RS)-6-Bromo-10-(3-hydroxy-phenyl)-3a-methyl-2-(2-piperidin-1-yl-ethyl)-3a,4,9,10-tetrahydro-2,9,10a-triaza-cyclopenta[b]fluorene-1,3-dione] it is no more than 39.8 nM.
As for `COc1cc2c3c([nH]c2cc1F)[C@@H](c1cccc(O)c1)N1C(=O)N(CCCN(C)C)C(=O)[C@]1(C)C3` (racemic) [Example 310, (3aSR,10RS)-2-(3-Dimethylamino-propyl)-7-fluoro-10-(3-hydroxy-phenyl)-6-methoxy-3a-methyl-3a,4,9,10-tetrahydro-2,9,10a-triaza-cyclopenta[b]fluorene-1,3-dione], the EC50 was 39.8 to 251 nM.
Consider `COc1cc2c3c([nH]c2cc1F)[C@@H](c1cccc(O)c1)N1C(=O)N(CCN(C)C)C(=O)[C@]1(C)C3` (racemic) [Example 255, (3aSR,10RS)-2-(2-Dimethylamino-ethyl)-7-fluoro-10-(3-hydroxy-phenyl)-6-methoxy-3a-methyl-3a,4,9,10-tetrahydro-2,9,10a-triaza-cyclopenta[b]fluorene-1,3-dione], for which the EC50 was 39.8 to 251 nM.
For the compound `COc1cc2c3c([nH]c2cc1F)[C@@H](c1cccc(O)c1)N1C(=O)N(CCCN(C)C(C)C)C(=O)[C@]1(C)C3` (racemic) [Example 319, (3aSR,10RS)-7-Fluoro-10-(3-hydroxy-phenyl)-2-[3-(isopropyl-methyl-amino)-propyl]-6-methoxy-3a-methyl-3a,4,9,10-tetrahydro-2,9,10a-triaza-cyclopenta[b]fluorene-1,3-dione], the EC50 is 39.8 to 251 nM.
